Target: p110β/p85α (Homo sapiens, UniProt P42338)
Experiment: PI3K β inhibition assay (TLC lipid kinase or HTRF)
Type: biochemical
Conditions: read-out: PI3K β IC50
How it was run: (§1)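 IC50 from TLC lipid kinase assay (25 mM HEPES pH 7.4, 10 mM MgCl2, 100 μg/ml phosphatidylinositol, 10 or 100 μM γ-32P-ATP, 5 min RT, phosphorimager) at 10–12 two-fold dilutions, or HTRF (10 μM PIP2, 10 μM ATP, 1 h RT) measuring PIP3 by TR-FRET; 2% DMSO final.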

Chain of p110β/p85α (P42338 whole entry, looked up): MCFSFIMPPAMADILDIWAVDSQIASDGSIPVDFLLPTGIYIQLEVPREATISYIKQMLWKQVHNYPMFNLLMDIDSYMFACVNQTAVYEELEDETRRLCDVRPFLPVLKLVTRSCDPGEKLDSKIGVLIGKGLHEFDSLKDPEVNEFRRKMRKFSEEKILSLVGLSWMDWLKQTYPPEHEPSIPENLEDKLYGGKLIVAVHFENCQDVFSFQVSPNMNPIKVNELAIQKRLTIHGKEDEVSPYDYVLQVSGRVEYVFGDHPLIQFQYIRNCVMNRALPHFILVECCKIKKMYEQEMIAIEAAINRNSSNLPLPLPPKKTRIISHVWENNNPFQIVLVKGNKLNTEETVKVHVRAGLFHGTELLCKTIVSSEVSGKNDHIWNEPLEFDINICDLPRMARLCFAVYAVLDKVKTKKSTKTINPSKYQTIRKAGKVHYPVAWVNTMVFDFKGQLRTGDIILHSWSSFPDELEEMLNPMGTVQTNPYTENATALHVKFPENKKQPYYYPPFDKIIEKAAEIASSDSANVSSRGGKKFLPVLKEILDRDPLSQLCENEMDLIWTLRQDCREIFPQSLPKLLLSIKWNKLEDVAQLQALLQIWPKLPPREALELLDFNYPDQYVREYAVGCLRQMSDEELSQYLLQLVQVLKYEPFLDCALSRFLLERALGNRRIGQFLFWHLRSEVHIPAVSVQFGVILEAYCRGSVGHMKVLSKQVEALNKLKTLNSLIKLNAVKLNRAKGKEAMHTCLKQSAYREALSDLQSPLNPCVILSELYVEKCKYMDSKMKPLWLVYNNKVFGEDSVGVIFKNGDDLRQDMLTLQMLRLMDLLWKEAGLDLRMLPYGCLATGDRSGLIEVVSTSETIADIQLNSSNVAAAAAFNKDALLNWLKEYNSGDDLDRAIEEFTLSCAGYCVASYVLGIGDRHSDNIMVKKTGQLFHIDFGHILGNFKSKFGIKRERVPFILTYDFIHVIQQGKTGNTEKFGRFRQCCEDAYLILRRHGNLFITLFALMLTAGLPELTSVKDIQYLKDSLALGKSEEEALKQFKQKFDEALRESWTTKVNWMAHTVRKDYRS

Row | Structure (SMILES) | IC50
1 | CC(=O)Nc1nc2ccc(-c3nn(Cc4cc5ccccc5nc4OC(C)C)c4ncnc(N)c34)cc2s1 [Compound 157] | > 1 µM
2 | Nc1ncnc2c1c(-c1cn[nH]c1)nn2Cc1cc2ccccc2nc1-c1ccccc1 [Compound 180] | > 1 µM
3 | CC(C)N(C)c1nc2ccccc2cc1Cn1nc(-c2cc(O)cc(F)c2)c2c(N)ncnc21 [Compound 52] | 0.1 to 1 µM
4 | Nc1ncnc2ccc(-c3nn(Cc4cc5ccccc5nc4-c4ccccc4F)c4ncnc(N)c34)cc12 [Compound 138] | > 1 µM
5 | Nc1nc2ccc(-c3nn(Cc4cc5ccccc5nc4CCN4CCCC4)c4ncnc(N)c34)cc2s1 [Compound 167] | 0.1 to 1 µM
6 | Nc1nc2ccc(-c3nn(Cc4cc5ccccc5nc4-c4ccccc4)c4ncnc(N)c34)cc2s1 [Compound 94] | > 1 µM
7 | CC(=O)Nc1nc2ccc(-c3nn(Cc4cc5ccccc5nc4N(C)C)c4ncnc(N)c34)cc2s1 [Compound 130] | < 0.1 µM
8 | CC(=O)Nc1nc2ccc(-c3nn(Cc4cc5ccccc5nc4-c4ccccc4F)c4ncnc(N)c34)cc2s1 [Compound 83] | > 1 µM
9 | Nc1ccc2cc(-c3nn(Cc4cc5ccccc5nc4-c4ccccc4F)c4ncnc(N)c34)ccc2n1 [Compound 136] | > 1 µM
10 | Cc1ccccc1-c1nc2ccccc2cc1Cn1nc(-c2cccc(O)c2)c2c(N)ncnc21 [Compound 5] | > 1 µM
11 | Cc1ccccc1-c1nc2ccccc2cc1Cn1nc(-c2cc(O)cc(F)c2)c2c(N)ncnc21 [Compound 4] | > 1 µM
12 | CC(=O)Nc1nc2ccc(-c3nn(Cc4cc5ccccc5nc4N4CCCC4)c4ncnc(N)c34)cc2s1 [Compound 195] | > 1 µM
13 | Nc1ncnc2c1c(-c1cc(O)cc(F)c1)nn2Cc1cc2ccccc2nc1Cl [Compound 54] | > 1 µM
14 | CC(=O)Nc1nc2ccc(-c3nn(Cc4cc5ccccc5nc4CCN4CCN(C)CC4)c4ncnc(N)c34)cc2s1 [Compound 169] | 0.1 to 1 µM

Tested on: Balb/c splenic B cells
Experiment: B cell activation and proliferation assay (Alamar Blue)
Type: cell-based, mouse
Conditions: Mus musculus, B-cell
Experimental: The ability of one or more subject compounds to inhibit B cell activation and proliferation is determined according to standard procedures known in the art. For example, an in vitro cellular proliferation assay is established that measures the metabolic activity of live cells. The assay is performed in a 96 well microtiter plate using Alamar Blue reduction. Balb/c splenic B cells are purified over a Ficoll-Paque™ PLUS gradient followed by magnetic cell separation using a MACS B cell Isolation Kit (Miletenyi). Cells are plated in 90 ul at 50,000 cells/well in B Cell Media (RPMI+10% FBS+Penn/Strep+50 uM bME+5 mM HEPES). A compound disclosed herein is diluted in B Cell Media and added in a 10 ul volume. Plates are incubated for 30 min at 37 C and 5% CO2 (0.2% DMSO final concentration). A 50 ul B cell stimulation cocktail is then added containing either 10 ug/ml LPS or 5 ug/ml F(ab′)2 Donkey anti-mouse IgM plus 2 ng/ml recombinant mouse IL4 in B Cell Media. Plates are incubated for 72 hours at 37° C. and 5% CO2. A volume of 15 uL of Alamar Blue reagent is added to each well and plates are incubated for 5 hours at 37 C and 5% CO2. Alamar Blue fluoresce is read at 560Ex/590Em, and IC50 or EC50 values are calculated using GraphPad Prism 5.

Row | Structure (SMILES) | EC50
15 | CC(=O)Nc1nc2ccc(-c3nn(Cc4cc5ccccc5nc4OC(C)C)c4ncnc(N)c34)cc2s1 [Compound 157] | > 1 µM
16 | Nc1ncnc2c1c(-c1cn[nH]c1)nn2Cc1cc2ccccc2nc1-c1ccccc1 [Compound 180] | 0.1 to 1 µM
17 | CC(C)N(C)c1nc2ccccc2cc1Cn1nc(-c2cc(O)cc(F)c2)c2c(N)ncnc21 [Compound 52] | < 0.1 µM
18 | Nc1ncnc2ccc(-c3nn(Cc4cc5ccccc5nc4-c4ccccc4F)c4ncnc(N)c34)cc12 [Compound 138] | 0.1 to 1 µM
19 | Nc1nc2ccc(-c3nn(Cc4cc5ccccc5nc4CCN4CCCC4)c4ncnc(N)c34)cc2s1 [Compound 167] | < 0.1 µM
20 | Nc1nc2ccc(-c3nn(Cc4cc5ccccc5nc4-c4ccccc4)c4ncnc(N)c34)cc2s1 [Compound 94] | 0.1 to 1 µM
21 | CC(=O)Nc1nc2ccc(-c3nn(Cc4cc5ccccc5nc4N(C)C)c4ncnc(N)c34)cc2s1 [Compound 130] | < 0.1 µM
22 | CC(=O)Nc1nc2ccc(-c3nn(Cc4cc5ccccc5nc4-c4ccccc4F)c4ncnc(N)c34)cc2s1 [Compound 83] | < 0.1 µM
23 | Nc1ccc2cc(-c3nn(Cc4cc5ccccc5nc4-c4ccccc4F)c4ncnc(N)c34)ccc2n1 [Compound 136] | 0.1 to 1 µM
24 | Cc1ccccc1-c1nc2ccccc2cc1Cn1nc(-c2cccc(O)c2)c2c(N)ncnc21 [Compound 5] | 0.1 to 1 µM
25 | Cc1ccccc1-c1nc2ccccc2cc1Cn1nc(-c2cc(O)cc(F)c2)c2c(N)ncnc21 [Compound 4] | < 0.1 µM
26 | CC(=O)Nc1nc2ccc(-c3nn(Cc4cc5ccccc5nc4N4CCCC4)c4ncnc(N)c34)cc2s1 [Compound 195] | < 0.1 µM
27 | Nc1ncnc2c1c(-c1cc(O)cc(F)c1)nn2Cc1cc2ccccc2nc1Cl [Compound 54] | < 0.1 µM
28 | CC(=O)Nc1nc2ccc(-c3nn(Cc4cc5ccccc5nc4CCN4CCN(C)CC4)c4ncnc(N)c34)cc2s1 [Compound 169] | < 0.1 µM

Target: p110γ (Homo sapiens (Human), UniProt P48736)
Sequence (P48736 whole entry): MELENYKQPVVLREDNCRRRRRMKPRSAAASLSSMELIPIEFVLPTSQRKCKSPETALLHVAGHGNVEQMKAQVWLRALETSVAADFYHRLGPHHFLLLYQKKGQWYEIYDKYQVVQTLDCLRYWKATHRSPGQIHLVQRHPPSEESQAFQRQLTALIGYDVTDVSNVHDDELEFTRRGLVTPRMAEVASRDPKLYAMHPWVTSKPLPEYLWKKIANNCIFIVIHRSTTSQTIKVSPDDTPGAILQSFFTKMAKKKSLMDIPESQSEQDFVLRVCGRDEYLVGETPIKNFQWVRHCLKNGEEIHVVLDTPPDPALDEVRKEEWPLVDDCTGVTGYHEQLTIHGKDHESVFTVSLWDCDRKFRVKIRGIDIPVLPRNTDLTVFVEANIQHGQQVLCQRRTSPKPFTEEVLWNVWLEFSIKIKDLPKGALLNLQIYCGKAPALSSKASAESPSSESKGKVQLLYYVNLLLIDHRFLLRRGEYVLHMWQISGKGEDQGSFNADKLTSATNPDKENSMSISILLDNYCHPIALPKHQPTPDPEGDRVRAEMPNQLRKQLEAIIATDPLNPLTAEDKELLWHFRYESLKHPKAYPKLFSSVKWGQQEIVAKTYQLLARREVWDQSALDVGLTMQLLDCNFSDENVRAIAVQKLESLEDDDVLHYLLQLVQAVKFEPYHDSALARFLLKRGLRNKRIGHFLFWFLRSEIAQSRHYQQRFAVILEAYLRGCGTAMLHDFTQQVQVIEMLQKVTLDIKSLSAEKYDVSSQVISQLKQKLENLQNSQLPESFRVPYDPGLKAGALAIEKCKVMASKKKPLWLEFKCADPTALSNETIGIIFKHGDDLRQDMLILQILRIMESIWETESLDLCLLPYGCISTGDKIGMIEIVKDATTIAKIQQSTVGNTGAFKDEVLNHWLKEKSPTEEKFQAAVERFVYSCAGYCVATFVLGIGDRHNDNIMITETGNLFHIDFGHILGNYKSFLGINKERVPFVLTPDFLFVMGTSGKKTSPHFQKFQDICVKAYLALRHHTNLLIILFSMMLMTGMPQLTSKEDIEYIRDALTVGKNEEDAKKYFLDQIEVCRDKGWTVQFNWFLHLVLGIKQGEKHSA
Experiment: PI3K γ inhibition assay (TLC lipid kinase or HTRF)
Type: biochemical
Conditions: not given
How it was run: as §1

Row | Structure (SMILES) | IC50
29 | CC(=O)Nc1nc2ccc(-c3nn(Cc4cc5ccccc5nc4OC(C)C)c4ncnc(N)c34)cc2s1 [Compound 157] | > 1 µM
30 | Nc1ncnc2c1c(-c1cn[nH]c1)nn2Cc1cc2ccccc2nc1-c1ccccc1 [Compound 180] | 0.1 to 1 µM
31 | CC(C)N(C)c1nc2ccccc2cc1Cn1nc(-c2cc(O)cc(F)c2)c2c(N)ncnc21 [Compound 52] | 0.1 to 1 µM
32 | Nc1ncnc2ccc(-c3nn(Cc4cc5ccccc5nc4-c4ccccc4F)c4ncnc(N)c34)cc12 [Compound 138] | < 0.1 µM
33 | Nc1nc2ccc(-c3nn(Cc4cc5ccccc5nc4CCN4CCCC4)c4ncnc(N)c34)cc2s1 [Compound 167] | < 0.1 µM
34 | Nc1nc2ccc(-c3nn(Cc4cc5ccccc5nc4-c4ccccc4)c4ncnc(N)c34)cc2s1 [Compound 94] | < 0.1 µM
35 | CC(=O)Nc1nc2ccc(-c3nn(Cc4cc5ccccc5nc4N(C)C)c4ncnc(N)c34)cc2s1 [Compound 130] | < 0.1 µM
36 | CC(=O)Nc1nc2ccc(-c3nn(Cc4cc5ccccc5nc4-c4ccccc4F)c4ncnc(N)c34)cc2s1 [Compound 83] | < 0.1 µM
37 | Nc1ccc2cc(-c3nn(Cc4cc5ccccc5nc4-c4ccccc4F)c4ncnc(N)c34)ccc2n1 [Compound 136] | < 0.1 µM
38 | Cc1ccccc1-c1nc2ccccc2cc1Cn1nc(-c2cccc(O)c2)c2c(N)ncnc21 [Compound 5] | 0.1 to 1 µM
39 | Cc1ccccc1-c1nc2ccccc2cc1Cn1nc(-c2cc(O)cc(F)c2)c2c(N)ncnc21 [Compound 4] | < 0.1 µM
40 | CC(=O)Nc1nc2ccc(-c3nn(Cc4cc5ccccc5nc4N4CCCC4)c4ncnc(N)c34)cc2s1 [Compound 195] | < 0.1 µM
41 | Nc1ncnc2c1c(-c1cc(O)cc(F)c1)nn2Cc1cc2ccccc2nc1Cl [Compound 54] | 0.1 to 1 µM
42 | CC(=O)Nc1nc2ccc(-c3nn(Cc4cc5ccccc5nc4CCN4CCN(C)CC4)c4ncnc(N)c34)cc2s1 [Compound 169] | 0.1 to 1 µM

Target: p110δ/p85α (Homo sapiens (Human), UniProt O00329)
Sequence (O00329 whole entry): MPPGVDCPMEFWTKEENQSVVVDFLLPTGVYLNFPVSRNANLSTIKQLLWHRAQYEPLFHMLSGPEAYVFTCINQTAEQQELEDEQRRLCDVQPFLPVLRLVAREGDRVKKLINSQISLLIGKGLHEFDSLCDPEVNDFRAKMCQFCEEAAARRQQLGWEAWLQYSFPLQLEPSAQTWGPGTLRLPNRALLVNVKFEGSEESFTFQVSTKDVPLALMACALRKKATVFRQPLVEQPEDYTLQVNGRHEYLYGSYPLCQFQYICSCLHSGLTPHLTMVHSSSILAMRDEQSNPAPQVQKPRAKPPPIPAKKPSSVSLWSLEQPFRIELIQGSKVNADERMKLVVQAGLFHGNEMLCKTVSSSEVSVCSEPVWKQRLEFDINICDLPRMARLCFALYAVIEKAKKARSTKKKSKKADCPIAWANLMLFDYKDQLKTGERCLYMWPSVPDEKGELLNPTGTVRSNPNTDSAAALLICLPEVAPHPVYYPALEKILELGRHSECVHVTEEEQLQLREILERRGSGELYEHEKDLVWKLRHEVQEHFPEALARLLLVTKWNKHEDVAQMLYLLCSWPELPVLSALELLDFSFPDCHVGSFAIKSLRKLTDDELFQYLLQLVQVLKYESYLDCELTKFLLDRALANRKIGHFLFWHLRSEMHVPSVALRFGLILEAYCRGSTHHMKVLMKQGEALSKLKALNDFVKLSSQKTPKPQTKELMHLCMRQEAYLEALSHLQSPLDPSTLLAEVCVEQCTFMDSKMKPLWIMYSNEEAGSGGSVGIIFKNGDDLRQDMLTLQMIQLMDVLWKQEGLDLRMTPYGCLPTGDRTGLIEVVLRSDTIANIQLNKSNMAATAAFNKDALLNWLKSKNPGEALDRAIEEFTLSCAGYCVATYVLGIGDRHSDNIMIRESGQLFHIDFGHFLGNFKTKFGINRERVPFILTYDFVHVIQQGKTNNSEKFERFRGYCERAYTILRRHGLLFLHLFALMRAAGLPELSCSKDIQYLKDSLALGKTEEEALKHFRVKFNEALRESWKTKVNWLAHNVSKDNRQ
Sequence (P27986 whole entry partner): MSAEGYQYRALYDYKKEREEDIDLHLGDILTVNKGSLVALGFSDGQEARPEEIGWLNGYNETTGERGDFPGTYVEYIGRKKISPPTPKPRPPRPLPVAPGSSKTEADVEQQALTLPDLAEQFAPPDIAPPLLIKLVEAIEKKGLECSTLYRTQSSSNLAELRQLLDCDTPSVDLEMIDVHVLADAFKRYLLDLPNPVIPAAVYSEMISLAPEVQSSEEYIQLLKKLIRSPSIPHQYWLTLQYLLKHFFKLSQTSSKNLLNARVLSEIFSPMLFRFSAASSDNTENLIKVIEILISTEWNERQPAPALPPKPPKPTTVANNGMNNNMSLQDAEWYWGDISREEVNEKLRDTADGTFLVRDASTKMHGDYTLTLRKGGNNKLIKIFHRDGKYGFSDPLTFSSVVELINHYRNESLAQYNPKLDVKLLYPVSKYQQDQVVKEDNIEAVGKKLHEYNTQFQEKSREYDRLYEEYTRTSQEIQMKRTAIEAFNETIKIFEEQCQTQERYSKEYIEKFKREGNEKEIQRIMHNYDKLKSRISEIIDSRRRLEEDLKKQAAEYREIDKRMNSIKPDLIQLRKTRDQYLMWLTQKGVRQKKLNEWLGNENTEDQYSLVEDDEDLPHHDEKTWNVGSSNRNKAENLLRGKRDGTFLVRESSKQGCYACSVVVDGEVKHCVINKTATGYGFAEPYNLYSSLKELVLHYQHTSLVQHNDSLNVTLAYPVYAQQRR
Experiment: PI3K δ inhibition assay (TLC lipid kinase or HTRF)
Type: biochemical
Conditions: not given
How it was run: as §1

Row | Structure (SMILES) | IC50
43 | CC(=O)Nc1nc2ccc(-c3nn(Cc4cc5ccccc5nc4OC(C)C)c4ncnc(N)c34)cc2s1 [Compound 157] | 0.1 to 1 µM
44 | Nc1ncnc2c1c(-c1cn[nH]c1)nn2Cc1cc2ccccc2nc1-c1ccccc1 [Compound 180] | < 0.1 µM
45 | CC(C)N(C)c1nc2ccccc2cc1Cn1nc(-c2cc(O)cc(F)c2)c2c(N)ncnc21 [Compound 52] | < 0.1 µM
46 | Nc1ncnc2ccc(-c3nn(Cc4cc5ccccc5nc4-c4ccccc4F)c4ncnc(N)c34)cc12 [Compound 138] | < 0.1 µM
47 | Nc1nc2ccc(-c3nn(Cc4cc5ccccc5nc4CCN4CCCC4)c4ncnc(N)c34)cc2s1 [Compound 167] | < 0.1 µM
48 | Nc1nc2ccc(-c3nn(Cc4cc5ccccc5nc4-c4ccccc4)c4ncnc(N)c34)cc2s1 [Compound 94] | < 0.1 µM
49 | CC(=O)Nc1nc2ccc(-c3nn(Cc4cc5ccccc5nc4N(C)C)c4ncnc(N)c34)cc2s1 [Compound 130] | < 0.1 µM
50 | CC(=O)Nc1nc2ccc(-c3nn(Cc4cc5ccccc5nc4-c4ccccc4F)c4ncnc(N)c34)cc2s1 [Compound 83] | < 0.1 µM
51 | Nc1ccc2cc(-c3nn(Cc4cc5ccccc5nc4-c4ccccc4F)c4ncnc(N)c34)ccc2n1 [Compound 136] | < 0.1 µM
52 | Cc1ccccc1-c1nc2ccccc2cc1Cn1nc(-c2cccc(O)c2)c2c(N)ncnc21 [Compound 5] | < 0.1 µM
53 | Cc1ccccc1-c1nc2ccccc2cc1Cn1nc(-c2cc(O)cc(F)c2)c2c(N)ncnc21 [Compound 4] | < 0.1 µM
54 | CC(=O)Nc1nc2ccc(-c3nn(Cc4cc5ccccc5nc4N4CCCC4)c4ncnc(N)c34)cc2s1 [Compound 195] | < 0.1 µM
55 | Nc1ncnc2c1c(-c1cc(O)cc(F)c1)nn2Cc1cc2ccccc2nc1Cl [Compound 54] | < 0.1 µM
56 | CC(=O)Nc1nc2ccc(-c3nn(Cc4cc5ccccc5nc4CCN4CCN(C)CC4)c4ncnc(N)c34)cc2s1 [Compound 169] | < 0.1 µM

Target: p110α/p85α (Homo sapiens (Human), UniProt P42336)
Sequence (P42336 whole entry): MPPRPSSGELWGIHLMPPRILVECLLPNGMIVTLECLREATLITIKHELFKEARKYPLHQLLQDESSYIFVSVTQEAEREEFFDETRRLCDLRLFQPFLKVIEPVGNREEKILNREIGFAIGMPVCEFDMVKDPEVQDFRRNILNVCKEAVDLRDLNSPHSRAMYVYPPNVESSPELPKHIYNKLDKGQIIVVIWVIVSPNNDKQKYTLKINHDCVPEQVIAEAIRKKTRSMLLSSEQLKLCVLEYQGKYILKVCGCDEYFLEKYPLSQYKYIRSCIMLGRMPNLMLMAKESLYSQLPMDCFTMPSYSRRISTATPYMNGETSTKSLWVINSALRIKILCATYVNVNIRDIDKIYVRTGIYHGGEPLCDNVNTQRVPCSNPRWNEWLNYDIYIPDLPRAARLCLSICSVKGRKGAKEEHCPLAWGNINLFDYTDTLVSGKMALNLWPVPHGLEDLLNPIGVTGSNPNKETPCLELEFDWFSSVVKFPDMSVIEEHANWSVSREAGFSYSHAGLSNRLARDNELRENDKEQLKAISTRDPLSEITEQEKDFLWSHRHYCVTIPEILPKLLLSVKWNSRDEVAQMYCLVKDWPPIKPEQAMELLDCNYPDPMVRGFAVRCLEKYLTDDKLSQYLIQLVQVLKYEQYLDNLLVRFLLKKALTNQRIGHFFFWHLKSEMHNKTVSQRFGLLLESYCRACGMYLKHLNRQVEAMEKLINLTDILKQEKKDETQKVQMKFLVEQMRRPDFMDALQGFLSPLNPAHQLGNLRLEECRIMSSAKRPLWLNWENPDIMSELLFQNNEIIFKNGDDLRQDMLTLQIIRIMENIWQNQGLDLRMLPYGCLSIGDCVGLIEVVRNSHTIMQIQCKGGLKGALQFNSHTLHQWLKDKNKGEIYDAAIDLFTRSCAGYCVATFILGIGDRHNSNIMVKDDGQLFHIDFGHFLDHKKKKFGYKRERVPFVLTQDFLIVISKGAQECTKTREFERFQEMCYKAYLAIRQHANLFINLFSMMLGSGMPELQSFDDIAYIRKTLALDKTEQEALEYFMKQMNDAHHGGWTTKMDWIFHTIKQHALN
Sequence (P27986 whole entry partner): as the sequence (P27986 whole entry partner) above
Experiment: PI3K α inhibition assay (TLC lipid kinase or HTRF)
Type: biochemical
Conditions: not given
How it was run: as §1

Row | Structure (SMILES) | IC50
57 | CC(=O)Nc1nc2ccc(-c3nn(Cc4cc5ccccc5nc4OC(C)C)c4ncnc(N)c34)cc2s1 [Compound 157] | > 1 µM
58 | Nc1ncnc2c1c(-c1cn[nH]c1)nn2Cc1cc2ccccc2nc1-c1ccccc1 [Compound 180] | > 1 µM
59 | CC(C)N(C)c1nc2ccccc2cc1Cn1nc(-c2cc(O)cc(F)c2)c2c(N)ncnc21 [Compound 52] | 0.1 to 1 µM
60 | Nc1ncnc2ccc(-c3nn(Cc4cc5ccccc5nc4-c4ccccc4F)c4ncnc(N)c34)cc12 [Compound 138] | > 1 µM
61 | Nc1nc2ccc(-c3nn(Cc4cc5ccccc5nc4CCN4CCCC4)c4ncnc(N)c34)cc2s1 [Compound 167] | < 0.1 µM
62 | Nc1nc2ccc(-c3nn(Cc4cc5ccccc5nc4-c4ccccc4)c4ncnc(N)c34)cc2s1 [Compound 94] | > 1 µM
63 | CC(=O)Nc1nc2ccc(-c3nn(Cc4cc5ccccc5nc4N(C)C)c4ncnc(N)c34)cc2s1 [Compound 130] | < 0.1 µM
64 | CC(=O)Nc1nc2ccc(-c3nn(Cc4cc5ccccc5nc4-c4ccccc4F)c4ncnc(N)c34)cc2s1 [Compound 83] | > 1 µM
65 | Nc1ccc2cc(-c3nn(Cc4cc5ccccc5nc4-c4ccccc4F)c4ncnc(N)c34)ccc2n1 [Compound 136] | > 1 µM
66 | Cc1ccccc1-c1nc2ccccc2cc1Cn1nc(-c2cccc(O)c2)c2c(N)ncnc21 [Compound 5] | > 1 µM
67 | Cc1ccccc1-c1nc2ccccc2cc1Cn1nc(-c2cc(O)cc(F)c2)c2c(N)ncnc21 [Compound 4] | > 1 µM
68 | CC(=O)Nc1nc2ccc(-c3nn(Cc4cc5ccccc5nc4N4CCCC4)c4ncnc(N)c34)cc2s1 [Compound 195] | < 0.1 µM
69 | Nc1ncnc2c1c(-c1cc(O)cc(F)c1)nn2Cc1cc2ccccc2nc1Cl [Compound 54] | > 1 µM
70 | CC(=O)Nc1nc2ccc(-c3nn(Cc4cc5ccccc5nc4CCN4CCN(C)CC4)c4ncnc(N)c34)cc2s1 [Compound 169] | 0.1 to 1 µM
